# Source: patent publication US20070213291A1, “Therapeutically useful synthetic oligonucleotides” (priority 1999, published 2007)
# Values joined by “and” are separate entries in the source; they are usually repeats but may differ in a detail not shown here. Identical values can stand only once.
# Legend:
# [1] = test system: PC-3 human prostate cancer cells; test: Inhibition of PC-3 cell proliferation (MTT); type: cell-based; conditions: 100 μg/ml, 48 h, 5×10^5 cells/ml
# Description: (§1) Cells were seeded in 6 (1 ml/well), 24 (0.5 ml/well) or 96 (0.1 ml/well) well flat-bottom microplates and were maintained at 37° C. in a 5% CO2 atmosphere. Unless stated otherwise, 2.5×10^5 cells/ml were incubated with 0 μg/ml (control) and 100 μg/ml (treated) of 2 to 45 base sequences containing A, C, G and T for 48 h.
# (§2) Cell proliferation was measured using dimethylthiazol-diphenyl-tetrazolium (MTT) reduction (Mosman et al. J. Immunol. Methods 65:55, 1983). MTT was measured at a wavelength of 570 nm using a multiplate spectrophotometer reader (ELX800, Bio-TEK Instruments Inc., Winooski, Vt.).
# PC-3 prostate cancer cells are a p53 mutated, androgen-independent human solid tumor model. PC-3 cells (5×10^5 cells/ml) were incubated with 3 and 6 base GT sequences (Table 8).
# [2] = test system: LNCaP human prostate cancer cells; test: Inhibition of LNCaP cell proliferation (MTT); type: cell-based; conditions: 100 μg/ml, 48 h, 5×10^5 cells/ml
# Description: as §1, §2
# LNCaP prostate cancer cells are a TGF-beta 1 receptor negative, […], metastatic human solid tumor model. LNCaP cells (5×10^5 cells/ml) were incubated with 6 base GT sequences (Table 9).
# [3] = test system: THP-1 human acute monocytic leukemia cells; test: Inhibition of THP-1 cell proliferation (MTT); type: cell-based; conditions: 100 μg/ml, 48 h, 1.6×10^6 cells/ml
# Description: as §1, §2
# THP-1 acute monocytic leukemia cells are a p53 null human suspension tumor model. THP-1 cells (1.6×10^6 cells/ml) were incubated with 6 base GT sequences (Table 10).
# chimpanzee PBMCs = test: Cytokine production by chimpanzee PBMC (ELISA); type: cell-based; conditions: PBMC of 4 healthy chimpanzees, 100 μg/ml, 48 h
# Summary of the method: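 PBMCs from 4 healthy chimpanzees (1×10^6 cells) were incubated 48 h at 37 °C, 5% CO2 with 100 μg/ml of each 6-base sequence. Supernatant IL-10, IL-12 (p70 plus free p40) and TNF-alpha were measured by ELISA. Values are fold increase over untreated control cells.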
# rhesus monkey PBMCs = test: Cytokine production by rhesus monkey PBMC (ELISA); type: cell-based; conditions: PBMC of 4 healthy rhesus monkeys, 100 μg/ml, 48 h
# Summary of the method: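 Peripheral blood mononuclear cells taken from 4 healthy rhesus monkeys were cultured at 1×10^6 cells with 100 μg/ml of each test sequence for 48 h at 37° C. under 5% CO2. Cytokine levels in 100 μl of supernatant were quantified in pg/ml by commercial ELISA and reported as fold increase over untreated control cells.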
# [4] = test system: human peripheral blood mononuclear cells; test: Cytokine production by human PBMC (ELISA); type: cell-based; conditions: PBMC of 7 healthy humans, 100 μg/ml, 48 h
# Summary of the method: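 PBMC from 7 healthy donors, Ficoll-isolated; 1×10^6 cells incubated with 100 μg/ml oligonucleotide sequence for 48 h at 37 °C, 5% CO2. IL-1beta, IL-6, IL-10, IL-12 (p70 plus free p40) and TNF-alpha measured by ELISA in supernatant, expressed as fold increase over control cells.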
# [5] = test system: A20 murine B leukemia cells; test: Inhibition of A20 cell proliferation (MTT); type: cell-based; conditions: 100 μg/ml, 48 h
# Description: as §1, §2
# A20 murine leukemia B cells are a suspension tumor model. A20 murine leukemia B cells were incubated with 6 base GT sequences (Table 19).
# [6] = test system: MCF-7 human breast cancer cells; test: Inhibition of MCF-7 cell proliferation (MTT); type: cell-based; conditions: 100 μg/ml, 48 h, 5×10^5 cells/ml
# Description: as §1, §2
# MCF-7 human breast cancer cells are a caspase 3 negative, estrogen-dependent human solid tumor model. MCF-7 cells (5×10^5 cells/ml) were incubated with 3 and 6 base GT sequences (Table 7).
# [7] = test system: HL-60 human promyelocytic leukemia cells; test: Inhibition of HL-60 cell proliferation (MTT); type: cell-based; conditions: 100 μg/ml, 48 h
# Description: as §1, §2
# HL-60 promyelocytic leukemia cells are a p53 mutated human suspension tumor model. HL-60 cells were incubated with 6 base GT sequences (Table 6).
# [8] = test system: Jurkat human leukemia T cells; test: Inhibition of Jurkat human leukemia T cell proliferation (MTT reduction); type: cell-based; conditions: for % INHIBITION of Jurkat human leukemia T cell proliferation: 100 μg/ml sequence, 48 h, 2.5×10^5 cells/ml; for proliferation, cell cycle arrest and apoptosis of Jurkat T cells (summary in words): M. phlei murA derived sequences
# Summary of the method: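 Read-out is MTT absorbance at 570 nm after 48 h. Sequences of 2 to 45 bases (A, C, G, T) tested at 100 μg/ml against untreated control, with 2.5×10^5 Jurkat cells/ml held at 37° C under 5% CO2.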
# [9] = test system: THP-1 human acute monocytic leukemia cells; test: Cytokine production by THP-1 cells (ELISA); type: cell-based; conditions: THP-1, 1×10^6 cells, 100 μg/ml, 48 h; for ↑ IL-12 (fold increase treated vs control cells): p70 complex and free p40
# Summary of the method: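 Read-out is fold increase in supernatant cytokine versus control cells, measured by ELISA (IL-12 ELISA counts p70 complex plus free p40). Unless noted, sequences were tested at 100 μg/ml on 1×10^6 cells, incubated 48 h, 37° C, 5% CO2.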
# [10] = test system: Jurkat human leukemia T cells; test: Apoptosis by phosphatidylserine/annexin V-FITC flow cytometry; type: cell-based; conditions: M. phlei murA derived sequences
# Description: The redistribution of phosphatidylserine in the plasma membrane during apoptosis was measured by flow cytometry using FITC-conjugated annexin V (BD Pharmingen, San Diego, Calif.). NuMA release into the supernatant was determined using a commercial ELISA kit (Oncogen/Calbiochem, Cambridge, Mass.).
# Jurkat human leukemia T cells were incubated with 50 μM of 3, 4, 5, 6 and 7 GT base sequences, a 5 base ACGT sequence, 6 base AG, GG, AGT and CGT sequences and a 7 base GG sequence. […]
# Jurkat human leukemia T cells were incubated with GT-rich or AC-rich sequences derived from the murA gene of Mycobacterium phlei (GenBank: Accession Number X99776). Inhibition of proliferation was measured by the reduction of MTT as in Example 3, cell cycle arrest was detected by flow cytometry using propidium iodide as in Example 21 and apoptosis was evaluated by flow cytometry using annexin-V-FITC as in Example 23.
# caspase 3 [11] = test: Active caspase 3 by FITC-conjugated antibody flow cytometry; type: cell-based, human; conditions: Jurkat, 72 h, 100 μg/ml, cytometric (FIG. 2A)
# Description: (§3) To determine caspase activation, control and treated cells are washed, fixed, permeabilized and incubated with an FITC-conjugated antibody that recognizes the active form of the caspase (Pharmingen, San Diego, Calif.) using the conditions recommended by the manufacturer. Fluorescence associated with active caspase 3 is analyzed by flow cytometry on a FACSCALIBUR using the program CellQUEST (Becton Dickinson). Alternatively, caspase activation is determined colorimetrically using an assay based on the cleavage of a caspase-specific peptide conjugated to the color reporter molecule p-nitroanilide, which can be quantitated spectrophotometrically at a wavelength of 405 nm.
# (§4) Jurkat T cell leukemia cells were incubated for 72 h with 33 base GT SEQ ID NO:66; 11 base GT SEQ ID NO:81 (bases 1-11 of GT SEQ ID NO:66), 11 base GT SEQ ID NO:82 (bases 12-22 of GT SEQ ID NO:66), 11 base GT SEQ ID NO:83 (bases 23-33 of GT SEQ ID NO:66) and 15 base ACG SEQ ID NO:67. Active caspase 3 (17-22 kDa) was determined using FITC conjugated antibody (Clone: C92-605) as in Example 28.
# caspase 3 [12] = test: Caspase 3 activation, colorimetric (p-nitroanilide peptide cleavage); type: cell-based, human; conditions: Jurkat, 72 h, 100 μg/ml
# Description: as §3, §4
# Caspase 3 activation also was determined colorimetrically as in Example 28.
# Jurkat T cell leukemia cells were incubated for 72 h with 6 base GT SEQ ID NO:25. Caspase 3 activation was determined colorimetrically as in Example 28.
Sequence,% INHIBITION of PC-3 human prostate cancer cell proliferation [1] [%],% INHIBITION of LNCaP human prostate cancer cell proliferation [2] [%],% INHIBITION of THP-1 human acute monocytic leukemia cell proliferation [3] [%],IL-10 fold increase: mean +/− SD (chimpanzee PBMCs),IL-12 fold increase: mean +/− SD (chimpanzee PBMCs),TNF-alpha fold increase: mean +/− SD (chimpanzee PBMCs),IL-10 fold increase: mean +/− SD (rhesus monkey PBMCs),IL-12 fold increase: mean +/− SD (rhesus monkey PBMCs),TNF-alpha fold increase: mean +/− SD (rhesus monkey PBMCs),IL-1 beta fold increase: mean +/− SD [4],IL-6 fold increase: mean +/− SD [4],IL-10 fold increase: mean +/− SD [4],IL-12 fold increase: mean +/− SD [4],% INHIBITION of A20 murine B leukemia cell proliferation [5] [%],% INHIBITION of MCF-7 human breast cancer cell proliferation [6] [%],% INHIBITION of HL-60 human promyelocytic leukemia cell proliferation [7] [%],% INHIBITION of Jurkat human leukemia T cell proliferation [8],↑ IL-6 (fold increase treated vs control cells) [9] [x],↑ IL-12 (fold increase treated vs control cells) [9] [x],% at cells in apoptosis [10] [%],further results
GGTGGG [SEQ ID NO:24],26,17,6,2.9 +/− 1.5 fold increase,14.3 +/− 9.1 fold increase,11.9 +/− 7.0 fold increase,1.0 +/− 0.1 fold increase,11.2 +/− 4.8 fold increase,14.5 +/− 5.4 fold increase,0.9 +/− 0.1 fold increase,15.9 +/− 14.9 fold increase,2.4 +/− 2.9 fold increase,2.3 +/− 1.6 fold increase,9,41,18,48%,6.9,3.7,–,–
GTGTGTTTGGT (unmodified DNA) [SEQ ID NO:81],–,–,–,–,–,–,–,–,–,–,–,–,–,–,–,–,22%,–,–,23,"processing of inactive pro-caspase 3 to active caspase 3 (caspase 3 [11]): induced processing of inactive pro-caspase 3 to active caspase 3; proliferation, cell cycle arrest and apoptosis of Jurkat T cells (summary in words) [8]: inhibited proliferation of, induced cell cycle arrest in and induced apoptosis of Jurkat T cells; caspase 3 activity greater than in control cells (caspase 3 [12]): 77%"
TGTGTG [SEQ ID NO:9],16,−9,0,2.3 +/− 1.3 fold increase,13.5 +/− 8.9 fold increase,11.3 +/− 6.9 fold increase,1.1 +/− 0.2 fold increase,10.6 +/− 4.2 fold increase,14.3 +/− 6.3 fold increase,1.2 +/− 0.4 fold increase,8.3 +/− 12.8 fold increase,1.0 +/− 0.1 fold increase,2.7 +/− 2.6 fold increase,22,6,7,37% and 36%,4.0,1.8,–,–
TTGTTTTTTTTG (unmodified DNA) [SEQ ID NO:83],–,–,–,–,–,–,–,–,–,–,–,–,–,–,–,–,21%,–,–,16,"processing of inactive pro-caspase 3 to active caspase 3 (caspase 3 [11]): induced processing of inactive pro-caspase 3 to active caspase 3; proliferation, cell cycle arrest and apoptosis of Jurkat T cells (summary in words) [8]: inhibited proliferation of, induced cell cycle arrest in and induced apoptosis of Jurkat T cells; caspase 3 activity greater than in control cells (caspase 3 [12]): 60%"
TTTGTT [SEQ ID NO:23],14,14,8,1.5 +/− 0.6 fold increase,12.9 +/− 8.2 fold increase,9.0 +/− 5.5 fold increase,1.0 +/− 0.1 fold increase,6.7 +/− 3.6 fold increase,4.4 +/− 3.8 fold increase,1.0 +/− 0.1 fold increase,11.8 +/− 9.0 fold increase,1.0 +/− 0.1 fold increase,1.1 +/− 0.3 fold increase,5,7,13,31%,4.9,3.5,–,–
